Assay results: US5352659A, “Endothelin analogs and uses thereof” (Takeda Chemical Industries, priority 1991, dated 1994)
Read-outs that look alike come from different tables or passages of the source. Bridge positions count the residues as written; N and C are the ends. Square brackets hold non-standard residues; d marks the D form. Peptide text beside a SMILES is read from it. tBuAla = CC(C)(C)C[C@H](N)C(=O)O; Mpa = O=C(O)CCS

Legend:
[1] = system: endothelin receptor; test: Assay of affinity for receptor (inhibition of 125I-ET-1 binding to porcine myocardial membrane fraction); conditions: relative to ET-1 = 100
Procedure: Assay of Affinity for Receptor
A membrane fraction prepared from the porcine heart was diluted to 0.15 mg/ml by using a buffer solution for assay, and 100 μl of the resulting suspension of the membrane fraction was poured into each assay tube to use for assay. To this suspension of the membrane fraction was added 2 μl of 5 nM ^125 I labeled endothelin-1 solution. Further, 3 μl of a test peptide solution was added thereto, followed by incubation at a temperature of 25° C. for 1 hour. Then, the resulting suspension was diluted with 900 μl of the buffer solution for assay cooled with ice, and thereafter separated into a supernatant and a precipitate by centrifugation at 12,000×g for 10 minutes. Cell membranes and an endothelin receptor embedded therein were contained in the precipitate, and radioactive iodine-labeled endothelin combined with the receptor was also recovered in the precipitate. Accordingly, the amount of radioactive iodine-labeled endothelin combined with the endothelin receptor was determined by measuring the amount of radioactive iodine contained in the precipitate with a gamma-ray counter.

[2] = system: porcine coronary artery; test: Constrictor activity on porcine coronary smooth muscles; conditions: for Maximum constriction (% 60 mM KCl): porcine coronary artery strips, normalized to 60 mM KCl response; for Constrictor activity (specific activity): relative to ET-1 = 100, porcine coronary artery
Procedure: (§1) Spiral strips 2 mm×15 mm prepared from the coronary right ramus circumflexus from which the adventitial connective tissues and the endothelial cells were removed were set to 4 ml organ baths. The tension of each strip was detected by a force displacement transducer UL-10GR (Minebea), and recorded by a polygraph (NEC Sanei). The organ baths were maintained at 37° C., and filled with a Krebs-Henseleit solution (composition: 118 mM NaCl, 4.7 mM KCl, 2.5 mM CaCl2, 1.2 mM KH2 PO4, 25.0 mM NaHCO3, 1.2 mM MgSO4, 10.0 mM glucose) gassed with 95% O2 and 5% CO2.
(§2) A tension of 1.25 to 1.5 g was applied to each of the strips, followed by equilibration for 1.5 hours. 60 mM KCl was repeatedly applied thereto at intervals of 30 minutes until the constriction response became constant. After additional equilibration for 1.5 hours, a sample for assay was given thereto. The constriction of the strips was normalized by the constriction response of the individual strips to 60 mM KCl and statistically processed.
(2) As to the antagonistic property of the peptides of the present invention to endothelin, the affinity for an endothelin receptor and the constrictor activity on porcine coronary smooth muscles (according to the method described in (1) described above) were assayed. The affinity for the receptor was assayed by the following method.

[3] = system: porcine coronary smooth muscles
Procedure: (1) Assay of Constrictor Suppressing Activity on Porcine Coronary Smooth Muscles
as §1, §2
pA2 is a negative logarithm value of a molar concentration of a competitive antagonist necessary for shifting in parallel a dose response curve for an active drug (for example, ET-1) alone to the high dose side by a factor of 2.

SMILES	Receptor binding activity (specific activity) [1]	Maximum constriction (% 60 mM KCl) [2] [% 60 mM KCl]	Constrictor activity (specific activity) [2]	pA2 ([3]; against cumulative endothelin-1, porcine coronary smooth muscles)	Relative potency [3]	pA2 [3]
CC[C@H](C)[C@H](NC(=O)[C@H](CC(C)(C)C)NC(=O)[C@@H](NC(=O)[C@H](CC(C)C)NC(=O)[C@H](Cc1c[nH]cn1)NC(=O)[C@@H]1CSSC[C@H](N)C(=O)N[C@@H](CO)C(=O)N[C@H]2CSSC[C@H](NC(=O)[C@H](CCC(=O)O)NC(=O)[C@H](CCCCN)NC(=O)[C@H](CC(=O)O)NC(=O)[C@H](CCSC)NC(=O)[C@H](CC(C)C)NC(=O)[C@H](CO)NC(=O)[C@H](CO)NC2=O)C(=O)N[C@@H](C(C)C)C(=O)N[C@@H](Cc2ccc(O)cc2)C(=O)N[C@@H](Cc2ccccc2)C(=O)N1)[C@@H](C)O)C(=O)N[C@@H](Cc1c[nH]c2ccccc12)C(=O)O [Example 4, [Thr^18, γLeu^19]-ET-1] (H-CSCSSLMDKECVYFCHLT[tBuAla]IW-OH; disulfide 1-15, 3-11)	23	0	< 0.1	7.4		
CC[C@H](C)[C@H](NC(=O)[C@H](CC(C)C)NC(=O)[C@H](CO)NC(=O)[C@H](CC(C)C)NC(=O)[C@H](Cc1c[nH]cn1)NC(=O)[C@@H]1CSSC[C@H](N)C(=O)N[C@@H](CO)C(=O)N[C@H]2CSSC[C@H](NC(=O)[C@H](CCC(=O)O)NC(=O)[C@H](CCCCN)NC(=O)[C@H](CC(=O)O)NC(=O)[C@H](CCSC)NC(=O)[C@H](CC(C)C)NC(=O)[C@H](CO)NC(=O)[C@H](CO)NC2=O)C(=O)N[C@@H](C(C)C)C(=O)N[C@@H](Cc2ccc(O)cc2)C(=O)N[C@@H](Cc2ccccc2)C(=O)N1)C(=O)N[C@@H](Cc1c[nH]c2ccccc12)C(=O)O [Example 6, [Ser^18, Leu^19]-ET-1] (H-CSCSSLMDKECVYFCHLSLIW-OH; disulfide 1-15, 3-11)	15	1	< 0.1		63	7.5
CC[C@H](C)[C@H](NC(=O)[C@H](CC(C)C)NC(=O)CNC(=O)[C@H](CC(C)C)NC(=O)[C@H](Cc1c[nH]cn1)NC(=O)[C@@H]1CSSC[C@H](N)C(=O)N[C@@H](CO)C(=O)N[C@H]2CSSC[C@H](NC(=O)[C@H](CCC(=O)O)NC(=O)[C@H](CCCCN)NC(=O)[C@H](CC(=O)O)NC(=O)[C@H](CCSC)NC(=O)[C@H](CC(C)C)NC(=O)[C@H](CO)NC(=O)[C@H](CO)NC2=O)C(=O)N[C@@H](C(C)C)C(=O)N[C@@H](Cc2ccc(O)cc2)C(=O)N[C@@H](Cc2ccccc2)C(=O)N1)C(=O)N[C@@H](Cc1c[nH]c2ccccc12)C(=O)O [Example 8, [Gly^18, Leu^19]-ET-1] (H-CSCSSLMDKECVYFCHLGLIW-OH; disulfide 1-15, 3-11)	9.5	14	< 0.1		10	6.7
CC[C@H](C)[C@H](NC(=O)[C@H](CC(C)C)NC(=O)[C@@H](NC(=O)[C@H](CC(C)C)NC(=O)[C@H](Cc1c[nH]cn1)NC(=O)[C@@H]1CSSC[C@H](N)C(=O)N[C@@H](CO)C(=O)N[C@H]2CSSC[C@H](NC(=O)[C@H](CCC(=O)O)NC(=O)[C@H](C)NC(=O)[C@H](CC(=O)O)NC(=O)[C@H](CCSC)NC(=O)[C@H](CC(C)C)NC(=O)[C@H](CO)NC(=O)[C@H](CO)NC2=O)C(=O)N[C@@H](C(C)C)C(=O)N[C@@H](Cc2ccc(O)cc2)C(=O)N[C@@H](Cc2ccccc2)C(=O)N1)[C@@H](C)O)C(=O)N[C@@H](Cc1c[nH]c2ccccc12)C(=O)O [Example 10, [Ala^9, Thr^18, Leu^19]-ET-1] (H-CSCSSLMDAECVYFCHLTLIW-OH; disulfide 1-15, 3-11)	16	4	< 0.1		1.6	5.9
CC[C@H](C)[C@H](NC(=O)[C@H](CC(C)C)NC(=O)[C@@H](NC(=O)[C@H](CC(C)C)NC(=O)[C@H](Cc1c[nH]cn1)NC(=O)[C@@H]1CSSCCC(=O)N[C@@H](CO)C(=O)N[C@H]2CSSC[C@H](NC(=O)[C@H](CCC(=O)O)NC(=O)[C@H](CCCCN)NC(=O)[C@H](CC(=O)O)NC(=O)[C@H](CCSC)NC(=O)[C@H](CC(C)C)NC(=O)[C@H](CO)NC(=O)[C@H](CO)NC2=O)C(=O)N[C@@H](C(C)C)C(=O)N[C@@H](Cc2ccc(O)cc2)C(=O)N[C@@H](Cc2ccccc2)C(=O)N1)[C@@H](C)O)C(=O)N[C@@H](Cc1c[nH]c2ccccc12)C(=O)O [Example 11, [Mpr^1, Thr^18, Leu^19]-ET-1] ([Mpa]SCSSLMDKECVYFCHLTLIW-OH; disulfide 1-15, 3-11)	16	1	< 0.1		6	6.5
CC[C@H](C)[C@H](NC(=O)[C@H](CC(C)C)NC(=O)[C@@H](NC(=O)[C@H](CC(C)C)NC(=O)[C@H](Cc1c[nH]cn1)NC(=O)[C@@H]1CSSC[C@H](N)C(=O)N[C@@H](C)C(=O)N[C@H]2CSSC[C@H](NC(=O)[C@H](CCC(=O)O)NC(=O)[C@H](CCCCN)NC(=O)[C@H](CC(=O)O)NC(=O)[C@H](CCSC)NC(=O)[C@H](CC(C)C)NC(=O)[C@H](CO)NC(=O)[C@H](CO)NC2=O)C(=O)N[C@@H](C(C)C)C(=O)N[C@@H](Cc2ccc(O)cc2)C(=O)N[C@@H](Cc2ccccc2)C(=O)N1)[C@@H](C)O)C(=O)N[C@@H](Cc1c[nH]c2ccccc12)C(=O)O [Example 12, [Ala^2, Thr^18, Leu^19]-ET-1] (H-CACSSLMDKECVYFCHLTLIW-OH; disulfide 1-15, 3-11)	32	5	< 0.1			6.7
CC[C@H](C)[C@H](NC(=O)[C@H](CC(C)C)NC(=O)[C@@H](NC(=O)[C@H](CC(C)C)NC(=O)[C@H](Cc1c[nH]cn1)NC(=O)[C@@H]1CSSC[C@H](N)C(=O)N[C@@H](CO)C(=O)N[C@H]2CSSC[C@H](NC(=O)[C@H](CCC(=O)O)NC(=O)[C@H](CCCCN)NC(=O)[C@H](CC(=O)O)NC(=O)[C@H](CCSC)NC(=O)[C@H](CC(C)C)NC(=O)[C@H](CO)NC(=O)[C@H](C)NC2=O)C(=O)N[C@@H](C(C)C)C(=O)N[C@@H](Cc2ccc(O)cc2)C(=O)N[C@@H](Cc2ccccc2)C(=O)N1)[C@@H](C)O)C(=O)N[C@@H](Cc1c[nH]c2ccccc12)C(=O)O [Example 13, [Ala^4, Thr^18, Leu^19]-ET-1] (H-CSCASLMDKECVYFCHLTLIW-OH; disulfide 1-15, 3-11)	57	6	< 0.1			6.9
CC[C@H](C)[C@H](NC(=O)[C@H](CC(C)C)NC(=O)[C@@H](NC(=O)[C@H](CC(C)C)NC(=O)[C@H](Cc1c[nH]cn1)NC(=O)[C@@H]1CSSC[C@H](N)C(=O)N[C@@H](CO)C(=O)N[C@H]2CSSC[C@H](NC(=O)[C@H](CCC(=O)O)NC(=O)[C@H](CCCCN)NC(=O)[C@H](CC(=O)O)NC(=O)[C@H](CCSC)NC(=O)[C@H](CC(C)C)NC(=O)[C@H](C)NC(=O)[C@H](CO)NC2=O)C(=O)N[C@@H](C(C)C)C(=O)N[C@@H](Cc2ccc(O)cc2)C(=O)N[C@@H](Cc2ccccc2)C(=O)N1)[C@@H](C)O)C(=O)N[C@@H](Cc1c[nH]c2ccccc12)C(=O)O [Example 14, [Ala^5, Thr^18, Leu^19]-ET-1] (H-CSCSALMDKECVYFCHLTLIW-OH; disulfide 1-15, 3-11)	8.6	6	< 0.1		0.6	5.5
